Like-named read-outs stand apart in the source and are kept apart here.

Broadly, the EC50 is the concentration at which the effect is half-maximal. Higher therefore signals weaker potency. By CC50 is commonly meant the concentration giving 50% cytotoxicity. The low end stands for greater toxicity to the cells, the high end for lower toxicity to the cells.

In one data set the test system is HCV1b/Con1 replicon. Briefly: HCV replicon antiviral evaluation assay (Luc reporter). The data set is classed as cell-based. The note with it: concentration inhibiting HCV replicon by 50%, Huh7 ET cells, 72 hr. A general note: Replicon systems follow genome replication, usually without infectious particles.
Data set [1] can be described thus: Cytotoxicity, CytoTox-1 cell proliferation assay of cell numbers. The note with it: human.
The subject of data set [2] is ET (luc-ubi-neo/ET) Huh7 human hepatoma cell line. The data set is described as above. The following applies: concentration decreasing cell viability by 50%; Huh7 ET cells, 72 hr; Table 1.
Data set [3] has the same test system.
[4] abbreviates: Hepatitis C virus, Table 1, 2′-C-methyl nucleoside phosphoramidates.
Setting [5] is: Table 1, 2′-C-methyl nucleoside phosphoramidates.

Turning to `C[C@@]1(O)[C@H](O)[C@@H](CO)O[C@H]1n1ccc(N)nc1=O` [Cmpd 4, 2′-C-methylcytidine, reference compound], in the data set with HCV1b/Con1 replicon (setting [4]), it took 1.34 µM to reach a half-maximal effect (EC50). For the same compound, the CC50 at 72 h in data set [1] was over 100 µM.
Taken in the same sequence, the figures for `C[C@@]1(O)[C@H](O)[C@@H](CO)O[C@H]1n1ccc(=O)[nH]c1=O` [Cmpd 5, 2′-C-methyluridine, reference compound] were 6.31 µM and over 100 µM.
In the data set with HCV1b/Con1 replicon (setting [5]), `COC(=O)C[C@H](NP(=O)(OCC1OC(n2ccc(N)nc2=O)C(C)(O)C1O)Oc1ccccc1)C(=O)OC` (stereo partly drawn) [Cmpd 16a, 2′-C-methylcytidine-5′-[phenyl-bis(methoxy-aspartyl)]phosphate] had an EC50 of 3.71 µM. Further, in data set [2], the CC50 is over 100 µM.
The matching figures for `COC(=O)[C@H](CC(=O)OCc1ccccc1)NP(=O)(OCC1OC(n2ccc(N)nc2=O)C(C)(O)C1O)Oc1ccccc1` (stereo partly drawn) [Cmpd 16b, 2′-C-methylcytidine-5′-[phenyl-(α-methoxy-β-benzyloxy-aspartyl)]phosphate]: 1.32 µM and over 100 µM.
The matching figures for `CC(C)OC(=O)C[C@H](NP(=O)(OCC1OC(n2ccc(N)nc2=O)C(C)(O)C1O)Oc1ccccc1)C(=O)OC(C)C` (stereo partly drawn) [Cmpd 16c, 2′-C-Methylcytidine-5′-[1-phenyl-bis(isopropyl-aspartyl)]phosphate]: 0.96 µM and over 100 µM.
Taken in the same sequence, the figures for `CCCCOC(=O)C[C@H](NP(=O)(OC[C@H]1O[C@@H](n2ccc(N)nc2=O)[C@](C)(O)[C@@H]1O)Oc1ccccc1)C(=O)OCCCC` (stereo partly drawn) [Cmpd 16d, 2′-C-Methylcytidine-5′-[phenyl-bis(n-butyl-aspartyl)]phosphate] were 0.26 µM and 30.9 µM.
In the data set on HCV1b/Con1 replicon (setting [5]), `CCCCCOC(=O)C[C@H](NP(=O)(OCC1OC(n2ccc(N)nc2=O)C(C)(O)C1O)Oc1ccccc1)C(=O)OCCCCC` (stereo partly drawn) [Cmpd 16e, 2′-C-Methyl-cytidine-5′-[phenyl-bis(amyl-aspartyl)]phosphate] had an EC50 of 0.05 µM. The same compound gave a CC50 in data set [3] of 9.53 µM.
Compound `CC(C)CCOC(=O)C[C@H](NP(=O)(OCC1OC(n2ccc(N)nc2=O)C(C)(O)C1O)Oc1ccccc1)C(=O)OCCC(C)C` (stereo partly drawn) [Cmpd 16f, 2′-C-Methylcytidine-5′-[phenyl-bis(isoamyl-aspartyl)]phosphate] came in with a 50% effective concentration (EC50) in the data set with HCV1b/Con1 replicon (setting [5]) of 0.05 µM. In addition, the CC50 in data set [2] stood at 9.54 µM.
Taken in the same sequence, the figures for `COC(=O)C[C@H](NP(=O)(OCC1OC(n2ccc(=O)[nH]c2=O)C(C)(O)C1O)Oc1ccccc1)C(=O)OC` (stereo partly drawn) [Cmpd 17a, 2′-C-methyluridine-5′-[phenyl-bis(methoxy-aspartyl)]phosphate] were 1.13 µM and over 100 µM.
Taken in the same sequence, the figures for `COC(=O)[C@H](CC(=O)OCc1ccccc1)NP(=O)(OCC1OC(n2ccc(=O)[nH]c2=O)C(C)(O)C1O)Oc1ccccc1` (stereo partly drawn) [Cmpd 17b, 2′-C-methyluridine-5′-[phenyl-(α-methoxy-β-benzyloxy-aspartyl)]phosphate] were 0.26 µM and 43.4 µM.
`CC(C)OC(=O)C[C@H](NP(=O)(OCC1OC(n2ccc(=O)[nH]c2=O)C(C)(O)C1O)Oc1ccccc1)C(=O)OC(C)C` (stereo partly drawn) [Cmpd 17c, 2′-C-Methyl-uridine-5′-[1-phenyl-bis(isopropyl-aspartyl)]phosphate] had an EC50 in the data set on HCV1b/Con1 replicon (setting [5]) of 0.29 µM. In data set [3], this compound had a CC50 of 35.7 µM.
Taken in the same sequence, the figures for `CCCCOC(=O)C[C@H](NP(=O)(OCC1OC(n2ccc(=O)[nH]c2=O)C(C)(O)C1O)Oc1ccccc1)C(=O)OCCCC` (stereo partly drawn) [Cmpd 17d, 2′-C-Methyl-uridine-5′-[phenyl-bis(n-butyl-aspartyl)]phosphate] were 0.04 µM and 4.64 µM.
The matching figures for `CCCCCOC(=O)C[C@H](NP(=O)(OCC1OC(n2ccc(=O)[nH]c2=O)C(C)(O)C1O)Oc1ccccc1)C(=O)OCCCCC` (stereo partly drawn) [Cmpd 17e, 2′-C-Methyl-uridine-5′-[phenyl-bis(amyl-aspartyl)]phosphate]: 0.03 µM and 7.11 µM.
Taken in the same sequence, the figures for `CC(C)CCOC(=O)C[C@H](NP(=O)(OCC1OC(n2ccc(=O)[nH]c2=O)C(C)(O)C1O)Oc1ccccc1)C(=O)OCCC(C)C` (stereo partly drawn) [Cmpd 17f, 2′-C-Methyl-uridine-5′-[phenyl-bis(isoamyl-aspartyl)]phosphate] were 0.03 µM and 10 µM.
Compound `C[C@@]1(F)[C@H](O)[C@@H](CO)O[C@H]1n1ccc(=O)[nH]c1=O` [Cmpd 22, 2′-deoxy-2′-fluoro-2′-C-methyluridine, reference compound] returned an EC50 in the data set with HCV1b/Con1 replicon (Hepatitis C virus, Table 2, 2′-F-nucleoside phosphoramidates) of over 100 µM. The compound also yielded a CC50 at 72 h in data set [1] of over 100 µM.
`CC(C)CCOC(=O)C[C@H](NP(=O)(OCC1OC(n2ccc(=O)[nH]c2=O)C(C)(F)C1O)Oc1ccccc1)C(=O)OCCC(C)C` (stereo partly drawn) [Cmpd 23a, 2′-Deoxy-2′-fluoro-2′-C-methyl-uridine-5′-[phenyl-bis(isoamyl-aspartyl)]phosphate]: a half-maximal effect in the data set on HCV1b/Con1 replicon (Table 2, 2′-F-nucleoside phosphoramidates) (EC50) was put at 0.06 µM. Further, the CC50 in data set [3] stood at 27.7 µM.
Compound `CC(C)CCOC(=O)C[C@H](NP(=O)(OCC1OC(n2ccc(=O)[nH]c2=O)C(C)(F)C1O)Oc1ccccc1)C(=O)OCCC(C)C` (stereo partly drawn) [Mixture 23a/23b, 2′-Deoxy-2′-fluoro-2′-C-methyl-uridine-5′-[phenyl-bis(isoamyl-aspartyl)]phosphate] had a CC50 in data set [3] of 33.1 µM.
